Source: patent US9980894B2, “Cosmetic compositions comprising hyaluronan biosynthesis promoting agents” (Symrise AG, priority 2012, dated 2018)
Entries after “also recorded” stand apart in the source; their conditions may differ. Like-named read-outs stand apart in the source and are kept apart here.

Key:
[1] = system: Normal Human Dermal Fibroblasts (NHDF); assay: Cellular in vitro hyaluronan assay on normal human dermal fibroblasts (hyaluronic acid ELISA); format: cell-based; settings: for Mean hyaluronan stimulation compared with positive control TGF-b1: cassione 0.25 μM, [6]-paradol 0.025 μM versus TGF-b1 1 ng/ml; for Effect on hyaluronan production of dermal fibroblasts (in words): in vitro; for Mean hyaluron stimulation vs. control: 16 h
Description: (§1) NHDF are seeded into a 24 well plate at a concentration of 1.5×10^4 cells/well. Cells are incubated at 37° C. and 5% CO2 in fibroblast medium containing 10% fetal bovine serum (FBS) until they are 70-80% confluent. Then the medium is withdrawn, cells are washed with PBS and the test compounds dissolved in fibroblast medium without FBS are added. After incubation for 16 h in the presence of the test compounds, the culture medium is collected and hyaluronan is determined by a hyaluronic acid ELISA detection kit (Corgenix) which is performed according to the supplier instructions. The stimulation of the hyaluronan biosynthesis in the presence of the test compounds is calculated according to the following equation: Hyaluronan stimulation [%]=([…]×100)−100 with • HAcontrol=hyaluronan content in ng/ml of the medium from cells treated with control • HAtest compound=hyaluronan content in ng/ml of the medium from cells treated with test compound

[2] = system: Normal Human Epidermal Keratinocytes (NHEK); assay: Cellular in vitro hyaluronan assay on normal human epidermal keratinocytes (hyaluronic acid ELISA); format: cell-based; settings: for Mean hyaluronan stimulation, fold less than that of the positive control retinol: compounds at 0.25 μM versus retinol at 0.1 μM; for Effect on hyaluronan production of epidermal keratinocytes (in words): in vitro; for Mean hyaluron stimulation vs. control: 16 h
Description: as §1, with “NHEK” for “NHDF”, “2.5×10^4” for “1.5×10^4”, “keratinocyte” for “fibroblast”, “medium” for “medium containing 10% fetal bovine serum (FBS)”, “medium” for “medium without FBS”

[3] = system: B16 melanoma cell line; settings: cited from earlier work
[4] = system: ex vivo human skin; assay: Hyaluronan assay on ex vivo human skin (Alcain blue staining, image analysis); format: cell-based
Excerpt: Human skin obtained from plastic surgery is cut into pieces of approximately 7×3 mm (diameter×thickness). 6 skin samples are used for each treatment. The skin samples are placed on a cotton pad soaked with culture medium (modified Williams'E medium). Control and hydrodispersion gels (as described in more detail below) without (=placebo) and with the test compound, respectively, are applied topically on day 0 and the application is renewed on day 1. On day 2, skin samples are fixed, histological sections are prepared and subsequent histochemically stained by Alcain blue. After that, pictures are taken from each section and dermal and epidermal hyaluronan is quantified by image analysis of a selected region of interest. To do so, the histochemical staining is divided in three different color channels with an algorithm specific for Alcain blue staining and the distribution and intensity of the blue colour channel which is specific for hyaluronan is analysed. Hyaluronan stimulation [%]=([…]×100)−100 with • HAcontrol=hyaluronan score of the skin sample treated with control • HAtest compound=hyaluron score of the skin sample treated with test compound
The hydrodispersion gels used had the composition as set out in Table 4: […]

[5] = listed as compound of formula IV
[6] = 0.0001% [6]-paradol containing gel versus placebo gel
[7] = 0.0001 % in hydrodispersion gel, topical on day 0 and day 1, analysed day 2

Compound: CC(=O)CCc1ccc2c(c1)OCO2 [Cassione, 4-(3,4-methylendioxyphenyl)-2-butanone]
- Mean hyaluronan stimulation compared with positive control TGF-b1 [1]: comparable
- Effect on hyaluronan production of dermal fibroblasts (in words) [1]: enhance the hyaluronan production; also recorded: potently enhance
- Mean hyaluron stimulation vs. control ([1]; test concentration 0.25 μM): 41.0 ± 6.0%
- Mean hyaluronan stimulation, fold less than that of the positive control retinol [2]: 1.9 fold
- Effect on hyaluronan production of epidermal keratinocytes (in words) [2]: enhance the hyaluronan production; also recorded: potently enhance
- Mean hyaluron stimulation vs. control ([2]; test concentration 0.25 μM): 37.0 ± 8.0%
- inhibition (skin lightening, in vitro efficacy) ([3]; 26 μM (5 μg/ml)): 15%
- inhibition (skin lightening, in vitro efficacy) ([3]; 520 μM (100 μg/ml)): 87%

Compound: COc1cc(CCC(=O)c2ccc(O)cc2)ccc1O [Compound of formula IV, 3-(4-Hydroxy-3-methoxyphenyl)-1-(4-hydroxyphenyl)-1-propanone]
- Effect on hyaluronan production of dermal fibroblasts (in words) [1, 5]: no stimulatory activity
- Effect on hyaluronan production of dermal fibroblasts (in words) ([1]; listed as formula IV): no direct stimulating effect on dermal fibroblasts
- Mean hyaluron stimulation vs. control ([1]; test concentration 0.25 μM): −5.5 ± 2.5%
- Mean hyaluronan stimulation, fold less than that of the positive control retinol [2]: 1.4 fold
- Effect on hyaluronan production of epidermal keratinocytes (in words) [2, 5]: enhance the hyaluronan production
- Effect on hyaluronan production of epidermal keratinocytes (in words) ([2]; listed as formula IV): powerfully upregulates HA synthesis
- Mean hyaluron stimulation vs. control ([2]; test concentration 0.25 μM): 50.5 ± 26.5%

Compound: CC1=C(/C=C/C(C)=C/C=C/C(C)=C/C(=O)O)C(C)(C)CCC1 [Retinoic acid, reference compound]
- Mean hyaluron stimulation vs. control ([1]; test concentration 0.1 μM): −13.0 ± 18.0%
- Mean hyaluron stimulation vs. control ([2]; test concentration 0.1 μM): 116.1 ± 37.3%

Compound: CC1=C(/C=C/C(C)=C/C=C/C(C)=C/CO)C(C)(C)CCC1 [Retinol, reference compound]
- Effect on hyaluronan production of dermal fibroblasts (in words) [1]: no stimulatory activity
- Mean hyaluron stimulation vs. control ([1]; test concentration 0.1 μM): 2.0%
- Mean hyaluron stimulation vs. control ([2]; test concentration 0.1 μM): 70.8 ± 33.3%

Compound: COc1cc(CCC(C)=O)ccc1O [Zingerone, 4-(4-hydroxy-3-methoxyphenyl)-2-butanone]
- Effect on hyaluronan production of dermal fibroblasts (in words) [1]: enhance the hyaluronan production; also recorded: increases HA biosynthesis
- Mean hyaluron stimulation vs. control ([1]; test concentration 0.25 μM): 15.0 ± 5.3%
- Mean hyaluronan stimulation, fold less than that of the positive control retinol [2]: 1.6 fold
- Effect on hyaluronan production of epidermal keratinocytes (in words) [2]: enhance the hyaluronan production; also recorded: more pronounced effect on epidermal keratinocytes
- Mean hyaluron stimulation vs. control ([2]; test concentration 0.25 μM): 45.0 ± 24.7%

Compound: CCCCCCCC(=O)CCc1ccc(O)c(OC)c1 [[6]-Paradol, Heptyl 4-hydroxy-3-methoxyphenethyl ketone]
- Mean hyaluronan stimulation compared with positive control TGF-b1 [1]: comparable
- Effect on hyaluronan production of dermal fibroblasts (in words) [1]: enhance the hyaluronan production; also recorded: potently stimulates
- Mean hyaluron stimulation vs. control ([1]; test concentration 0.025 μM): 38.0 ± 9.0%
- Effect on hyaluronan production of epidermal keratinocytes (in words) [2]: no stimulatory activity; also recorded: without any direct stimulating effect on epidermal keratinocytes
- Mean hyaluron stimulation vs. control ([2]; test concentration 0.025 μM): −3.0 ± 3.0%
- Mean HA stimulation versus placebo, dermal HA [4, 6]: 250%
- Mean HA stimulation versus placebo, epidermal HA [4, 6]: 124%
- Mean hyaluronan stimulation vs. control [%] Dermal [4, 7]: 124%
- Mean hyaluronan stimulation vs. control [%] Epidermal [4, 7]: 51%
- Effect on dermal and epidermal hyaluronan level of ex vivo human skin (in words) ([4]; 0.0001%, 2 days of topical treatment): significantly stimulates

Compound: TGF-b1: Transforming growth factor (TGF)-beta1, positive control known to increase HA synthesis in dermal fibroblasts
- Mean hyaluron stimulation vs. control ([1]; test concentration 1 ng/ml): 39.7 ± 13.9%
- Effect on hyaluronan production of epidermal keratinocytes (in words) [2]: no stimulatory activity
- Mean hyaluron stimulation vs. control ([2]; test concentration 1 ng/ml): −31.0%
